Results taken from patent US20030133874A1, “Analytical method to evaluate animal models of neurofibrillary degeneration” (priority 2002, published 2003).

Key:
tau [1] = experiment: Induction of tau hyperphosphorylation in rat hippocampal brain slices, immunoblot; assay type: cell-based
Description: Freshly prepared hippocampal brain slices from adult Long-Evans rats were incubated under oxygenation in a physiological buffer for 1 hr with increasing concentrations of okadaic acid. Slices were homogenized in an ice-cold stop buffer by brief ultrasonication, and supernatants were boiled and analyzed for heatstable tau proteins by immunoblotting with reference mAbs Tau-1, AT8, and PHF-1 (FIG. 4a), and AP422 (FIG. 4b).
Adult male Long-Evans rats were anesthesized with CO2 and decapitated. Brains were removed within 2 min and the hippocampus was dissected using a blunt spatula. Hippocampi were cut into […] slices using a Mcllwain tissue chopper and placed into ice-cold low Ca^2+ Krebs-Bicarbonate buffer (pH 7.0): 124 mM NaCl, 3.33 mM KCl, 0.01 mM Ca^2+, 1.25 mM KH2P04, 1.33 mM MgS04, 25.7 mM NaHCO3, 10 mM D-Glucose, 20 mM HEPES. 5-8 slices were placed into a tube with 5 ml of low Ca^2+ buffer and incubated for at least 30 min at 33-34° C. with water saturated oxygenation (95% O2, 5% CO2.). After 30 min the solution was replaced with a buffer containing a physiological level of Ca^2+ (1.3 mM) and incubated for an additional 30 min. […] Aliquots of heat-stable supernatants, normalized for protein content, were analyzed on 10% SDS-PAGE, followed by immunoblotting with mAbs AT8 (1:200) and AP422 (1:5,000). […]

tau [2] = experiment: Tau hyperphosphorylation in vivo after intracerebral injection into nucleus basalis, immunoblot; conditions: rat nucleus basalis
Description: a) Analysis with mAbs Tau-1 and AT8. […] Brains were surgically removed, the nucleus basalis dissected and homogenized in ice-cold stop buffer after 30 to 360 min. Heatstable supernatants were immunoblotted with Tau-1, AT8, and Tau-1 after dephosphorylation on the blot for normalization purposes.
b) Relevant areas of immunoblots developed with ECL were scanned densitometrically and AT8 signals normalized to Tau-1 signals of phosphatase-treated blots. Results represent triplicate experiments, P values were determined by ANOVA.
c) Aliquots of extracts of vehicle and okadaic acid injected nuclei basali were immunoblotted with mAb AP422.
Male or female Long-Evans rats at approximately 3 to 4 months of age were housed in pairs with food and water available ad libidum. […] The tissue was held out of the operating field with forceps and the areas of injection were marked. Openings were made through the skull using a dentists drill and a number 5 carbide bur. […]
Heat-stable supernatants of triplicate experiments were analyzed by immunoblotting with AT8 (FIG. 5a) and AP422 (FIG. 5c). AT8 signals were quantitated after normalization to Tau-1 immunoreactivity on phosphatase-treated blots as described in example 3. […]

tau [3] = experiment: Tau phosphorylation in rat brain after prolonged pentobarbital anesthesia, immunoblot of heat-stable extracts; conditions: rats, five hours after 65 mg/kg
Description: The animals at 5 hrs after the first anesthesia had to be anethesized a second time, as they had regained full consciousness. […] Recovered brains were homogenized and supernatants processed for immunoblotting with AT8 and Tau-1 as before. To normalize signal intensity with phosphorylation-dependent mAbs to total amount of tau protein present in each extract (specific labelling) sister blots with a five-fold reduced load of extract protein were subjected to exhaustive dephosphorylation with calf intestinal alkaline phosphatase prior to staining with Tau-1. Blots were developed by ECL and relevant areas of the blots were scanned densitometrically. […]
A second dose of anesthetic was administered immediately prior to brain removal when excision occurred two hours or more after the first anesthesia. Cortices were processed and tau proteins analyzed by Western-blotting as in Example 2, using mAbs Tau-1 and AT8. To allow quantitative immunochemical evaluation of tau phosphorylation sister blots of all samples with a five-fold lower protein load were subjected to exhaustive dephosphorylation to provide a relative measure for total load of tau protein using Tau-1 staining. […] Signals were captured on KODAK X-OMAT scientific imaging film and quantitated by densitometric scanning and image analysis with NIH image 1.44. […]

C=C1[C@@H](O)[C@@H]2O[C@]3(CC[C@H](/C=C/[C@@H](C)[C@@H]4CC(C)=C[C@@]5(O[C@H](C[C@@](C)(O)C(=O)O)CC[C@H]5O)O4)O3)CC[C@H]2O[C@@H]1[C@@H](O)C[C@H](C)[C@H]1O[C@@]2(CCCCO2)CC[C@H]1C [okadaic acid]
tau hyperphosphorylation detected with AT8 (tau [1]; freshly prepared rat brain slices): tau hyperphosphorylation induced | AP422 reactivity of tau (tau [1]; rat hippocampal brain slices, increasing concentrations): induced | specific effect on normalized AT8 signal (tau [2]; 30 to 360 min after injection): impossible to discern | in vivo tau hyperphosphorylation detected with AP422 (tau [2]; individual animals): does not always occur

CCCC(C)C1(CC)C(=O)NC(=O)NC1=O (centres unmarked) [pentobarbital]
autonomous signs after regaining consciousness (tau [3]): no abnormal autonomous signs
